Test results as given in patent US20260265265A1, “NOVEL BENZIMIDAZOLONE DERIVATIVE COMPOUND AS AUTOTAXIN INHIBITOR” (LG CHEM, LTD., priority 2023, published 2026).

Biological target: T1, Recombinant Human ENPP-2/Autotaxin (Homo sapiens, UniProt Q13822)
T1 construct: purchased R&D systems 5255-EN
Experiment: LysoPLD activity measurement (autotaxin enzyme inhibition, choline release, TOOS reagent)
Type: biochemical
Details: LysoPLD inhibitory activity; substrate 14:0 LysoPC; absorbance at 555 nm
Summary of the method: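 Autotaxin lysoPLD activity was read as choline released from 14:0 LysoPC, detected by TOOS reagent absorbance. Compound was preincubated 30 min, then substrate diluted to 300 μM was added and the reaction ran 90 minutes at 37° C. Controls contained 1% DMSO.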

Row | Compound | IC50 [nM]
1 | O=C(O)c1cccc(Cn2c(=O)n(-c3ccc(C4CCN(C(=O)C5CCC5)CC4)cc3)c3c(F)c(Cl)ccc32)c1F [Example 152, 3-((5-chloro-3-(4-(1-(cyclobutanecarbonyl)piperidin-4-yl)phenyl)-4-fluoro-2-oxo-2,3-dihydro-1H-benzo[d]imidazol-1-yl)methyl)-2-fluorobenzoic acid] | 10 to 100
2 | CN(C)c1ccc(-n2c(=O)n(C(C)(C)c3cccc(C(=O)O)c3)c3ccc(Cl)cc32)cc1 [Example 153, 3-(2-(5-chloro-3-(4-(dimethylamino)phenyl)-2-oxo-2,3-dihydro-1H-benzo[d]imidazol-1-yl)propane-2-yl)benzoic acid] | 10 to 100
3 | CC(C)(c1cccc(C(=O)O)c1)n1c(=O)n(-c2ccc(N3CC(O)C3)cc2)c2cc(Cl)ccc21 [Example 154, 3-(2-(5-chloro-3-(4-(3-hydroxyazetidin-1-yl)phenyl)-2-oxo-2,3-dihydro-1H-benzo[d]imidazol-1-yl)propane-2-yl)benzoic acid] | 10 to 100
4 | O=C(O)c1cccc(C2(n3c(=O)n(-c4ccc(C5CCOCC5)cc4)c4cc(Cl)ccc43)CCC2)c1 [Example 155, 3-(1-(5-chloro-2-oxo-3-(4-(tetrahydro-2H-pyran-4-yl)phenyl)-2,3-dihydro-1H-benzo[d]imidazol-1-yl)cyclobutyl)benzoic acid] | 10 to 100
5 | CN(C)c1ccc(-n2c(=O)n(C3(c4cccc(C(=O)O)c4)CCC3)c3ccc(Cl)cc32)cc1 [Example 156, 3-(1-(5-chloro-3-(4-(dimethylamino)phenyl)-2-oxo-2,3-dihydro-1H-benzo[d]imidazol-1-yl)cyclobutyl)benzoic acid] | 10 to 100
6 | CC(C)(c1cccc(C(=O)O)c1)n1c(=O)n(-c2ccc(C3CCOCC3)cc2)c2cc(Cl)ccc21 [Example 158, 3-(2-(5-chloro-2-oxo-3-(4-(tetrahydro-2H-pyran-4-yl)phenyl)-2,3-dihydro-1H-benzo[d]imidazol-1-yl)propan-2-yl)benzoic acid] | 10 to 100
7 | CN(C)c1ccc(-n2c(=O)n(Cc3cccc(C(=O)O)c3)c3ncc(Cl)cc32)cc1 [Example 161, 3-((6-chloro-1-(4-(dimethylamino)phenyl)-2-oxo-1,2-dihydro-3H-imidazo[4,5-b]pyridin-3-yl)methyl)benzoic acid] | 100 to 1000
8 | O=C(O)c1cccc(Cn2c(=O)n(-c3ccc(N4CCOCC4)cc3)c3cc(Cl)cnc32)c1 [Example 162, 3-((6-chloro-1-(4-morpholinophenyl)-2-oxo-1,2-dihydro-3H-imidazo[4,5-b]pyridin-3-yl)methyl)benzoic acid] | 100 to 1000
9 | O=C(O)c1cccc(Cn2c(=O)n(-c3ccc(C4CC4)cn3)c3cc(Cl)ccc32)c1 [Example 163, 3-((5-chloro-3-(5-cyclopropylpyridin-2-yl)-2-oxo-2,3-dihydro-1H-benzo[d]imidazol-1-yl)methyl)benzoic acid] | 100 to 1000
10 | CN(C)c1ccc(-n2c(=O)n(Cc3cccc(C(=O)O)c3)c3ccc(Cl)cc32)nc1 [Example 164, 3-((5-chloro-3-(5-(dimethylamino)pyridin-2-yl)-2-oxo-2,3-dihydro-1H-benzo[d]imidazol-1-yl)methyl)benzoic acid] | 100 to 1000
11 | O=C(O)c1cccc(Cn2c(=O)n(-c3ccc(N4CCC(F)(F)C4)nc3)c3cc(Cl)ccc32)c1F [Example 166, 3-((5-chloro-3-(6-(3,3-difluoropyrrolidine-1-yl)pyridin-3-yl)-2-oxo-2,3-dihydro-1H-benzo[d]imidazol-1-yl)methyl)-2-fluorobenzoic acid] | 100 to 1000
12 | Cc1ccc2c(n1)n(-c1ccc(N(C)C)cc1)c(=O)n2Cc1cccc(C(=O)O)c1 [Example 168, 3-((3-(4-(dimethylamino)phenyl)-5-methyl-2-oxo-2,3-dihydro-1H-imidazo[4,5-b]pyridin-1-yl)methyl)benzoic acid] | 100 to 1000
13 | O=C(O)c1cccc(Cn2c(=O)n(-c3ccc(C(=O)N4CCCC4)cc3)c3cc(Cl)cnc32)c1 [Example 169, 3-((6-chloro-2-oxo-1-(4-(pyrrolidine-1-carbonyl)phenyl)-1,2-dihydro-3H-imidazo[4,5-b]pyridin-3-yl)methyl)benzoic acid] | 10 to 100
14 | O=C(O)c1cccc(C2(n3c(=O)n(-c4ccc(CC(=O)N5CCOCC5)cc4)c4cc(Cl)ccc43)CC2)c1 [Example 172, 3-(1-(5-chloro-3-(4-(2-morpholino-2-oxoethyl)phenyl)-2-oxo-2,3-dihydro-1H-benzo[d]imidazol-1-yl)cyclopropyl)benzoic acid] | 10 to 100
15 | O=C(O)c1cccc(C2(n3c(=O)n(-c4ccc(CC(=O)N5CCC(F)(F)CC5)cc4)c4cc(Cl)ccc43)CC2)c1 [Example 173, 3-(1-(5-chloro-3-(4-(2-(4,4-difluoropiperidin-1-yl)-2-oxoethyl)phenyl)-2-oxo-2,3-dihydro-1H-benzo[d]imidazol-1-yl)cyclopropyl)benzoic acid] | 10 to 100

The next lines start with the values.

Row | IC50 [nM] | Compound
16 | 10 to 100 | O=C(O)c1cccc(C2(n3c(=O)n(-c4nc5ccccc5s4)c4cc(Cl)ccc43)CC2)c1F [Example 144, 3-(1-(3-(benzo[d]thiazol-2-yl)-5-chloro-2-oxo-2,3-dihydro-1H-benzo[d]imidazol-1-yl)cyclopropyl)-2-fluorobenzoic acid]
17 | 10 to 100 | O=C(O)c1cccc(C2(n3c(=O)n(-c4ccc(CN5CCOCC5)cc4)c4cc(Cl)ccc43)CC2)c1 [Example 145, 3-(1-(5-chloro-3-(4-(morpholinomethyl)phenyl)-2-oxo-2,3-dihydro-1H-benzo[d]imidazol-1-yl)cyclopropyl)benzoic acid]
18 | < 10 | O=C(O)c1cccc(C2(n3c(=O)n(-c4ccc(N5CCCC5)cc4)c4cc(Cl)ccc43)CC2)c1 [Example 146, 3-(1-(5-chloro-2-oxo-3-(4-(pyrrolidin-1-yl)phenyl)-2,3-dihydro-1H-benzo[d]imidazol-1-yl)cyclopropyl)benzoic acid]
19 | < 10 | O=C(O)c1cccc(C2(n3c(=O)n(-c4ccc(N5CCOCC5)cc4)c4cc(Cl)ccc43)CC2)c1 [Example 147, 3-(1-(5-chloro-3-(4-morpholinophenyl)-2-oxo-2,3-dihydro-1H-benzo[d]imidazol-1-yl)cyclopropyl)benzoic acid]
20 | < 10 | O=C(O)c1cccc(C2(n3c(=O)n(-c4ccc(N5CC6(CCOCC6)C5)cc4)c4cc(Cl)ccc43)CC2)c1 [Example 148, 3-(1-(3-(4-(7-oxa-2-azaspiro[3.5]nonane-2-yl)phenyl)-5-chloro-2-oxo-2,3-dihydro-1H-benzo[d]imidazol-1-yl)cyclopropyl)benzoic acid]
21 | < 10 | O=C(O)c1cccc(C2(n3c(=O)n(-c4ccc(N5CC6(COC6)C5)cc4)c4cc(Cl)ccc43)CC2)c1 [Example 149, 3-(1-(3-(4-(2-oxa-6-azaspiro[3.3]heptane-6-yl)phenyl)-5-chloro-2-oxo-2,3-dihydro-1H-benzo[d]imidazol-1-yl)cyclopropyl)benzoic acid]
22 | 10 to 100 | O=C(O)c1cccc(Cn2c(=O)n(-c3ccc(C4CCN(C(=O)C5CC5)CC4)cc3)c3c(F)c(Cl)ccc32)c1F [Example 150, 3-((5-chloro-3-(4-(1-(cyclopropanecarbonyl)piperidin-4-yl)phenyl)-4-fluoro-2-oxo-2,3-dihydro-1H-benzo[d]imidazol-1-yl)methyl)-2-fluorobenzoic acid]
23 | 10 to 100 | CCC(=O)N1CCC(c2ccc(-n3c(=O)n(Cc4cccc(C(=O)O)c4F)c4ccc(Cl)c(F)c43)cc2)CC1 [Example 151, 3-((5-chloro-4-fluoro-2-oxo-3-(4-(1-propionylpiperidin-4-yl)phenyl)-2,3-dihydro-1H-benzo[d]imidazol-1-yl)methyl)-2-fluorobenzoic acid]
24 | < 10 | CN(C)C(=O)c1ccc(-n2c(=O)n(C3(c4cccc(C(=O)O)c4)CCC3)c3ccc(Cl)cc32)cc1 [Example 157, 3-(1-(5-chloro-3-(4-(dimethylcarbamoyl)phenyl)-2-oxo-2,3-dihydro-1H-benzo[d]imidazol-1-yl)cyclobutyl)benzoic acid]
25 | < 10 | O=C(O)c1cccc(C2(n3c(=O)n(-c4ccc(N5CC(O)C5)cc4)c4cc(Cl)ccc43)CC2)c1 [Example 159, 3-(1-(5-chloro-3-(4-(3-hydroxyazetidin-1-yl)phenyl)-2-oxo-2,3-dihydro-1H-benzo[d]imidazol-1-yl)cyclopropyl)benzoic acid]
26 | < 10 | O=C(O)c1cccc(C2(n3c(=O)n(-c4ccc(N5CCC(F)(F)CC5)cc4)c4cc(Cl)ccc43)CC2)c1 [Example 160, 3-(1-(5-chloro-3-(4-(4,4-difluoropiperidin-1-yl)phenyl)-2-oxo-2,3-dihydro-1H-benzo[d]imidazol-1-yl)cyclopropyl)benzoic acid]
27 | < 10 | O=C(O)c1cccc(C2(n3c(=O)n(-c4ccc(N5CCC(F)(F)C5)nc4)c4cc(Cl)ccc43)CC2)c1 [Example 165, 3-(1-(5-chloro-3-(6-(3,3-difluoropyrrolidin-1-yl)pyridin-3-yl)-2-oxo-2,3-dihydro-1H-benzo[d]imidazol-1-yl)cyclopropyl)benzoic acid]
28 | < 10 | O=C(O)c1cccc(C2(n3c(=O)n(-c4ccc(CC(=O)N5CCCC5)cc4)c4cc(Cl)ccc43)CC2)c1 [Example 170, 3-(1-(5-chloro-2-oxo-3-(4-(2-oxo-2-(pyrrolidin-1-yl)ethyl)phenyl)-2,3-dihydro-1H-benzo[d]imidazol-1-yl)cyclopropyl)benzoic acid]
29 | < 10 | O=C(O)c1cccc(C2(n3c(=O)n(-c4ccc(CC(=O)N5CCCCC5)cc4)c4cc(Cl)ccc43)CC2)c1 [Example 171, 3-(1-(5-chloro-2-oxo-3-(4-(2-oxo-2-(piperidin-1-yl)ethyl)phenyl)-2,3-dihydro-1H-benzo[d]imidazol-1-yl)cyclopropyl)benzoic acid]
30 | < 10 | O=C(O)c1cccc(C2(n3c(=O)n(-c4ccc(CC(=O)N5CC(O)C5)cc4)c4cc(Cl)ccc43)CC2)c1 [Example 174, 3-(1-(5-chloro-3-(4-(2-(3-hydroxyazetidin-1-yl)-2-oxoethyl)phenyl)-2-oxo-2,3-dihydro-1H-benzo[d]imidazol-1-yl)cyclopropyl)benzoic acid]
